Source: PubChem BioAssay (NCI)
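All cell lines were grown in 96-well plates and treated with compound for 48 hours. GI50 = concentration required for 50% inhibition of growth. TGI denotes the concentration required for complete inhibition of growth.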

Experiments:
Experiment in all cases: inhibition of tumour cell growth, NCI panel, 48 h
[1] = test system: U251 CNS
[2] = test system: LOX IMVI melanoma
[3] = test system: MDA-MB-435
[4] = test system: SW-620 colon
[5] = test system: UACC-62 melanoma
[6] = test system: BT-549 breast
[7] = test system: NCI-H226 lung
[8] = test system: MOLT-4 leukemia

| Structure (SMILES) | GI50 [1] [µM] | TGI [1] [µM] | GI50 [2] [µM] | TGI [2] [µM] | GI50 [3] [µM] | TGI [3] [µM] | GI50 [4] [µM] | TGI [4] [µM] | GI50 [5] [µM] | TGI [5] [µM] | GI50 [6] [µM] | TGI [6] [µM] | GI50 [7] [µM] | TGI [7] [µM] | GI50 [8] [µM] | TGI [8] [µM] |
| --- | --- | --- | --- | --- | --- | --- | --- | --- | --- | --- | --- | --- | --- | --- | --- | --- |
| Cn1nc(C(F)(F)F)cc1-c1cc(Cl)c(OCc2ccc(Cl)cc2)c(-c2ccc(Cl)c(C(F)(F)F)c2)c1O | 1.05 | 5.13 | 1.16 | 3.12 | 1.42 | 4.18 | 1.38 | 5.38 | 0.91 | 2.51 | 0.995 | 2.75 | 1.36 | 4.3 | 1.01 | 2.39 |
| C[C@]12CCC(=O)C=C1C[C@@H](O)[C@@H]1[C@@H]2CC[C@@]2(C)[C@H]1CC[C@]2(C)O | – | > 100 | – | > 100 | – | > 100 | – | > 100 | – | > 100 | – | > 100 | – | > 100 | – | – |
| C=C1C(=O)O[C@@H]2/C=C(/C)[C@@H](OC(C)=O)C[C@@H](O)/C(C)=C\[C@@H](OC(=O)[C@]3(C)O[C@@H]3C)[C@@H]12 | – | 31.3 | – | 20.4 | – | 28.8 | – | 18.5 | – | 31.9 | – | 18.8 | – | > 100 | – | 20.7 |
| c1ccc2c(N=NSc3ncnc4nc[nH]c34)c3ccccc3nc2c1 | 1.12 | 10.9 | 0.643 | 7.14 | 1.97 | 6.12 | – | – | 1.1 | 2.63 | 2.76 | 8.7 | 0.641 | 2.31 | 0.454 | 4.83 |
| CCOC(=O)N1CCC(N=C2CSc3nnc(-c4cc(C(F)(F)F)cc(C(F)(F)F)c4)n3N2)CC1 | 1.77 | 3.53 | 1.77 | 3.45 | 1.58 | 3 | 2.09 | 4.27 | 1.64 | 3.36 | 1.89 | 3.79 | 2.16 | 5.02 | 2.57 | 5.31 |
| CN1C(=O)N(C)C2C1NC(=S)N2/N=C/C=C/c1ccccc1[N+](=O)[O-] (stereo unspecified) | – | – | 0.87 | > 100 | 0.271 | 0.997 | 0.596 | > 100 | 0.419 | > 100 | 3.34 | > 100 | 17.5 | > 100 | 0.992 | > 100 |
| CC1=C(CCC(C)CO)O[C@H]2C[C@H]3[C@@H]4CC[C@H]5C[C@@H](O)CC[C@]5(C)[C@H]4CC(=O)[C@]3(C)[C@@H]12 (stereo partly specified) | – | 37.8 | – | 33.8 | – | 54.8 | – | > 100 | – | 18.1 | – | 58.4 | – | > 82.2 | – | 19.2 |
| COc1cccc(N2CC(O)=C(c3nc4ccccc4s3)C2=N)c1 | 0.42 | 19.5 | 0.459 | > 100 | 0.0478 | 0.362 | 0.341 | > 100 | 0.239 | 2.61 | 0.726 | > 100 | 7.21 | > 100 | 0.166 | > 100 |
| CC(=O)C1=C(C)N(Cc2ccccc2)C2(O)C=CC(=O)C3=C(O)c4ccccc4C(=O)C312 (stereo unspecified) | 3.38 | 10.2 | 1.97 | 4.39 | 2.26 | 4.14 | 2.24 | 5.22 | 2.64 | 7.64 | 5.88 | 19.6 | 8.12 | 22.1 | 3.34 | > 100 |
| CCC(=O)NC1=C(Cl)C(=O)C(NC(=O)CC)=C(Cl)C1=O | > 41.9 | > 56 | 16.3 | 31.2 | 18.9 | 33.8 | 5.77 | 11 | 29.7 | > 57.3 | 16 | 29.7 | > 45.6 | > 62.1 | 9.55 | > 21.9 |
| COC(=O)[C@]1(C)CCC[C@@]2(C)C3=C(CC[C@H]12)C[C@@H](CC(OC(C)=O)OC(C)=O)[C@@H](C)C3 | 13.4 | > 28.9 | > 50 | > 50 | 9.96 | 20.5 | 11 | 22.7 | 8.82 | 19.4 | 12.8 | 25.2 | 11.2 | 31.1 | 18.5 | > 50 |
| COc1cc2c(cc1OCC(=O)Nc1ccc(Cl)cc1C(=O)c1ccccc1Cl)N=CC1CCCN1C2=O (stereo unspecified) | 6.36 | 19.3 | 12.1 | 26.2 | 13 | 26.3 | 11.8 | 25.8 | 15.2 | 29.2 | – | – | 17.6 | 34.3 | 4.44 | 28.2 |
| O=C(Nc1ccc(Cl)c(Cl)c1)c1ccc(NC2=C(Cl)C(=O)N(Cc3ccccc3)C2=O)cc1 | – | – | – | – | 5.62 | 19.5 | – | – | 4.93 | 17.7 | 3.29 | 10.6 | 7.33 | 20.8 | 2.18 | 5.02 |
| CC(=O)C(CN1C(=O)c2ccccc2C1=O)C(C)=O | – | > 100 | – | – | – | > 100 | – | > 100 | – | > 100 | – | > 100 | – | > 100 | – | – |
| CCOC(=O)C1=C(Nc2ccc(OC)cc2)C(N)=NC1=N | 3.81 | > 100 | 5.47 | > 100 | 0.336 | 1.5 | 3.95 | > 100 | 2.85 | > 100 | 5.37 | > 100 | – | – | 4.38 | > 100 |
| O=[N+]([O-])c1ccc2c(c1)C(N1CCN(CCO)CC1)Cc1ccc(F)cc1S2 (stereo unspecified) | – | 24.3 | – | – | – | – | – | 19.3 | – | 12.3 | – | 23.1 | – | 23.1 | – | 9.21 |
| CCCCCCC(=O)NC1=C(N2CC2)C(=O)C(NC(=O)CCCCCC)=C(N2CC2)C1=O | 2.88 | > 100 | 3.03 | > 100 | 1.56 | 3.11 | 2.25 | > 100 | 1.87 | > 100 | 31.3 | > 100 | > 100 | > 100 | – | – |
